# PubChem BioAssay AID208 (DTP/NCI, 2004)
# Values joined by “and” are separate entries in the source; they are usually repeats but may differ in a detail not shown here. Equal values may be shown once. Inconclusive results are not listed.
# Test system: HT29 intrarenal xenograft, nude mice, tumor weight change
# Test: NCI In Vivo Anticancer Drug Screen. Data for tumor model HT29;CX-1 Human Adenocarcinoma (MER+) (intrarenal inoculation) in NU/NU BALB/C (nude) mice
# Settings: endpoint: mean tumor weight change, higher = larger tumour
# Method: The antitumor activity of compounds was measured in mice bearing transplantable tumors. Survival or tumor size were measured and the results are expressed as the measurement made in the treated group (T) divided by the measurement made in the vehicle treated control group (C). The tumor model used in this assay is HT29;CX-1 Human Adenocarcinoma (MER+) (intrarenal inoculation) in NU/NU BALB/C (nude) mice
# [1] = dose: 150.0 mg/kg/injection, schedule: Q04DX004 (sc), vehicle: saline with Tween-80
# [2] = dose: 300.0 mg/kg/injection, schedule: Q04DX004 (sc), vehicle: saline with Tween-80
# [3] = dose: 600.0 mg/kg/injection, schedule: Q04DX004 (sc), vehicle: saline with Tween-80
# [4] = dose: 1200.0 mg/kg/injection, schedule: Q04DX004 (sc), vehicle: saline with Tween-80
# [5] = dose: 6.25 mg/kg/injection, schedule: Q01DX010 (sc), vehicle: saline
# [6] = dose: 300.0 mg/kg/injection, schedule: Q04DX004 (sc), vehicle: saline
compound,measurement,setting,value
CC(=O)c1cccc(NC2C(N)C(NC(=O)N(C)C)(C(C)O)C(C)(O)C2(O)COC(=O)c2c(C)cccc2O)c1 (stereo not given),T/C,"dose: 0.5 mg/kg/injection, schedule: Q04DX004 (ip), vehicle: saline",124 % of control
same,T/C,"dose: 1.0 mg/kg/injection, schedule: Q04DX004 (ip), vehicle: saline",93 % of control
same,T/C,"dose: 2.0 mg/kg/injection, schedule: Q04DX004 (ip), vehicle: saline",75 % of control
same,T/C,"dose: 4.0 mg/kg/injection, schedule: Q04DX004 (ip), vehicle: saline",100 % of control
CCC1=C[C@H]2CN(CCc3c([nH]c4ccccc34)[C@@](C(=O)OC)(c3cc4c(cc3OC)N(C)[C@H]3[C@@](O)(C(=O)NC)[C@H](OC(C)=O)[C@]5(CC)C=CCN6CC[C@]43[C@@H]65)C2)C1,T/C,"dose: 2.0 mg/kg/injection, schedule: Q04DX004 (sc), vehicle: water",-17 % of control and 8 % of control
same,T/C,"dose: 4.0 mg/kg/injection, schedule: Q04DX004 (sc), vehicle: water",-99 % of control
CO[C@H]1C[C@@H]2CC[C@@H](C)[C@@](O)(O2)C(=O)C(=O)N2CCCC[C@H]2C(=O)O[C@H]([C@H](C)C[C@@H]2CC[C@@H](O)[C@H](OC)C2)CC(=O)[C@H](C)C=C(C)[C@@H](O)[C@@H](OC)C(=O)[C@H](C)C[C@H](C)/C=C/C=C/C=C1C,T/C,"dose: 200.0 mg/kg/injection, schedule: Q01DX010 (sc), vehicle: saline with Tween-80",84 % of control
same,T/C,"dose: 400.0 mg/kg/injection, schedule: Q01DX010 (sc), vehicle: saline with Tween-80",40 % of control
same,T/C,"dose: 800.0 mg/kg/injection, schedule: Q01DX010 (sc), vehicle: saline with Tween-80",59 % of control
same,T/C,"dose: 1600.0 mg/kg/injection, schedule: Q01DX010 (sc), vehicle: saline with Tween-80",25 % of control
O.O.[NH-]C1CCCCC1[NH-].[Pt+2] (stereo not given),T/C,"dose: 5.0 mg/kg/injection, schedule: Q01DX010 (sc), vehicle: dextrose",98 % of control
same,T/C,"dose: 10.0 mg/kg/injection, schedule: Q01DX010 (sc), vehicle: dextrose",75 % of control
same,T/C,"dose: 20.0 mg/kg/injection, schedule: Q01DX010 (sc), vehicle: dextrose",34 % of control
same,T/C,"dose: 40.0 mg/kg/injection, schedule: Q01DX010 (sc), vehicle: dextrose",19 % of control
Cc1c(-c2ccc(-c3ccccc3F)cc2)nc2ccc(F)cc2c1C(=O)O,T/C,"dose: 12.5 mg/kg/injection, schedule: Q01DX010 (ip), vehicle: water",59 % of control
same,T/C,"dose: 53.3 mg/kg/injection, schedule: Q01DX009 (ip), vehicle: water",30 % of control
O=C(NC1CCCCC1)OCc1c(COC(=O)NC2CCCCC2)c(-c2ccc(Cl)c(Cl)c2)n2c1CCC2,T/C,[1],67 % of control
same,T/C,[2],60 % of control
same,T/C,[3],54 % of control
same,T/C,[4],65 % of control
CCOC(=O)NC1=C(N2CC2)C(=O)C(NC(=O)OCC)=C(N2CC2)C1=O,T/C,"dose: 1.56 mg/kg/injection, schedule: Q01DX010 (sc), vehicle: saline",120 % of control
same,T/C,"dose: 3.13 mg/kg/injection, schedule: Q01DX010 (sc), vehicle: saline",88 % of control
same,T/C,[5],107 % of control
Oc1ccc(CCl)c2cccnc12,T/C,"dose: 75.0 mg/kg/injection, schedule: Q04DX004 (sc), vehicle: saline",76 % of control
same,T/C,"dose: 150.0 mg/kg/injection, schedule: Q04DX004 (sc), vehicle: saline",110 % of control
same,T/C,[6],89 % of control
N=C(N)c1ccc(/C=C/c2ccc(C(=N)N)cc2O)cc1,T/C,"dose: 75.0 mg/kg/injection, schedule: Q04DX004 (sc), vehicle: water",101 % of control
same,T/C,"dose: 150.0 mg/kg/injection, schedule: Q04DX004 (sc), vehicle: water",86 % of control
CC1=C(O)C(=O)[C@@H]2O[C@@H]2C1=O,T/C,"dose: 37.5 mg/kg/injection, schedule: Q04DX004 (sc), vehicle: saline",60 % of control
Cc1cc(N(CC(C)Br)CC(C)Br)ccc1N=Nc1ccccc1C(=O)O (stereo not given),T/C,"dose: 3.13 mg/kg/injection, schedule: Q01DX010 (sc), vehicle: saline with Tween-80",65 % of control
same,T/C,"dose: 6.25 mg/kg/injection, schedule: Q01DX010 (sc), vehicle: saline with Tween-80",55 % of control
same,T/C,"dose: 12.5 mg/kg/injection, schedule: Q01DX010 (sc), vehicle: saline with Tween-80",57 % of control
Nc1ccn([C@@H](C=O)O[C@@H](C=O)CO)c(=O)n1,T/C,"dose: 50.0 mg/kg/injection, schedule: Q04DX004 (sc), vehicle: saline",117 % of control
same,T/C,"dose: 100.0 mg/kg/injection, schedule: Q04DX004 (sc), vehicle: saline",71 % of control
same,T/C,"dose: 200.0 mg/kg/injection, schedule: Q04DX004 (sc), vehicle: saline",113 % of control
Cc1cnc(/C=N\NC(N)=S)c2cccc(N)c12,T/C,"dose: 125.0 mg/kg/injection, schedule: Q04DX004 (ip), vehicle: saline with Tween-80",92 % of control
OCC(O)C(O)C(O)C(O)CO (stereo not given),T/C,"dose: 75.0 mg/kg/injection, schedule: Q04DX004 (ip), vehicle: saline",104 % of control
same,T/C,"dose: 150.0 mg/kg/injection, schedule: Q04DX004 (ip), vehicle: saline",115 % of control
same,T/C,"dose: 300.0 mg/kg/injection, schedule: Q04DX004 (ip), vehicle: saline",82 % of control
same,T/C,"dose: 600.0 mg/kg/injection, schedule: Q04DX004 (ip), vehicle: saline",90 % of control
CC1(C)OCC2OC=CC(=O)C2O1 (stereo not given),T/C,[1],111 % of control and 89 % of control
same,T/C,[3],82 % of control and 92 % of control
CC(C)CCC(=O)c1ccoc1,T/C,"dose: 0.75 mg/kg/injection, schedule: Q01DX010 (ip), vehicle: saline with Tween-80",85 % of control
same,T/C,"dose: 1.5 mg/kg/injection, schedule: Q01DX010 (ip), vehicle: saline with Tween-80",87 % of control
same,T/C,"dose: 3.0 mg/kg/injection, schedule: Q01DX010 (ip), vehicle: saline with Tween-80",75 % of control and 91 % of control
same,T/C,"dose: 6.0 mg/kg/injection, schedule: Q01DX010 (ip), vehicle: saline with Tween-80",74 % of control and 94 % of control
CCc1ccc(C2=C(O)C(=O)C(c3ccc(CC)cc3)=C(O)C2=O)cc1,T/C,"dose: 100.0 mg/kg/injection, schedule: Q04DX004 (sc), vehicle: saline with Tween-80",112 % of control
same,T/C,"dose: 200.0 mg/kg/injection, schedule: Q04DX004 (sc), vehicle: saline with Tween-80",91 % of control
same,T/C,"dose: 400.0 mg/kg/injection, schedule: Q04DX004 (sc), vehicle: saline with Tween-80",102 % of control
O=C1N[C@@H]2C(=C[C@H](O)[C@@H](O)[C@H]2O)c2cc3c(c(O)c21)OCO3,T/C,"dose: 5.0 mg/kg/injection, schedule: Q04DX004 (sc), vehicle: saline with Tween-80",177 % of control
O=[N+]([O-])c1nccn1CC(O)CO (stereo not given),T/C,[6],86 % of control
same,T/C,"dose: 1200.0 mg/kg/injection, schedule: Q04DX004 (sc), vehicle: saline",81 % of control
same,T/C,"dose: 2400.0 mg/kg/injection, schedule: Q04DX004 (sc), vehicle: saline",112 % of control
COC1C(C)OC(OC2CC(C)(O)Cc3cc4c(c(O)c32)C(=O)c2c(O)cc3c(c2C4=O)OC2OC3(C)C(O)C(N(C)C)C2O)C(OC)C1(C)OC (stereo not given),T/C,"dose: 20.0 mg/kg/injection, schedule: Q04DX004 (sc), vehicle: Klucel (hydroxypropylcellulose) (HPC)",74 % of control
same,T/C,"dose: 40.0 mg/kg/injection, schedule: Q04DX004 (sc), vehicle: Klucel (hydroxypropylcellulose) (HPC)",49 % of control
O=C(C/C(=N\C(=S)Nc1cc(C(F)(F)F)ccc1Cl)NO)N1CCCC1,T/C,"dose: 600.0 mg/kg/injection, schedule: Q04DX003 (sc), vehicle: saline with Tween-80",114 % of control
same,T/C,"dose: 1200.0 mg/kg/injection, schedule: Q04DX003 (sc), vehicle: saline with Tween-80",88 % of control
COc1nc(=O)n(C2C=CC(=O)O2)cc1F (stereo not given),T/C,"dose: 75.0 mg/kg/injection, schedule: Q04DX004 (sc), vehicle: suspension in saline",52 % of control
same,T/C,"dose: 150.0 mg/kg/injection, schedule: Q04DX004 (sc), vehicle: suspension in saline",122 % of control
CN(CO)c1nc(N(C)CO)nc(N(C)CO)n1,T/C,[5],100 % of control
same,T/C,"dose: 25.0 mg/kg/injection, schedule: Q01DX010 (sc), vehicle: saline",92 % of control
same,T/C,"dose: 100.0 mg/kg/injection, schedule: Q01DX010 (sc), vehicle: saline",6 % of control
O=C(CCCCCCC(=O)ON1C(=O)CCC1=O)ON1C(=O)CCC1=O,T/C,[1],25 % of control
same,T/C,[2],50 % of control
same,T/C,[3],93 % of control
same,T/C,[4],77 % of control
Cc1ccc(S(=O)(=O)N/N=C/C(Br)=C(/Br)C(=O)O)cc1,T/C,"dose: 1.25 mg/kg/injection, schedule: Q04DX004 (sc), vehicle: saline",103 % of control
same,T/C,"dose: 2.5 mg/kg/injection, schedule: Q04DX004 (sc), vehicle: saline",78 % of control
same,T/C,"dose: 5.0 mg/kg/injection, schedule: Q04DX004 (sc), vehicle: saline",105 % of control
C[C@]12CC[C@H](O)CC1=CC[C@@H]1[C@@H]2CC[C@]2(C)C(=O)CC[C@@H]12,T/C,"dose: 2400.0 mg/kg/injection, schedule: Q04DX004 (sc), vehicle: saline with Tween-80",73 % of control
